For one data set, the system named is MV4-11 cells. The experiment in a line: MV4-11 Cell Cytotoxicity Assay. The format is cell-based, human. Conditions: CCK-8; for IC50: 72 hr; for IC50 at 72 h: human, MV4-11 cells. From the text:
% Inhibition=100−(D−B)/(S−B)*100%.
S: The absorbance of the maximum (cells with DMSO)
B: The absorbance of the minimum (medium with DMSO)

In a further data set the target is T1, BRD4 (BD1+BD2) (Homo sapiens, UniProt O60885).
T1 construct: 1.8 μg/ml recombinant BRD4 (BD1+BD2 domains) protein
Conditions: read-out: BRD4 Binding Potency. How it is done:
A master mix was prepared with assay buffer, 1.8 μg/ml recombinant BRD4 (BD1+BD2 domains) protein, and 200-fold dilutions of Tb-labeled donor and dye-labeled acceptor. 40-fold dilutions of acetylated and non-acetylated ligands were prepared in 1×BRD TR-FRET assay buffer. Also, a serial 3-fold dilution of each compound was prepared ranging from 40 μM down until 2.0 nM. In a 384-well plate, 5 μl diluted ligand and 5 μl of compound dilution were added per well to duplicate wells and mixed by brief shaking. Then 10 μl of master mix was added per well, mixed by brief shaking, incubated at 25° C. for 2 hr and fluorescence was measured on an EnVision Plate Reader. The 665 nm/615 nm ratio was calculated from EnVision raw data. Data were normalized using whole-plate averages of “positive” and “negative” readings. A four-parameter “log[inhibitor] vs. response” curve was fitted using GraphPad Prism 7.0.

For another data set, the target named is HSP90α (Homo sapiens, UniProt P07900). The experiment in a line: HSP90α Binding Fluorescent Polarization (FP) Assay. Conditions: competition with FITC-geldanamycin; read-out: HSP90 Binding Potency. How it is done:
HSP90α Binding Fluorescent Polarization (FP) Assay
A master mix was prepared with assay buffer, BSA and FITC-geldanamycin. In a 96-well plate, a serial 3-fold dilution of each compound was prepared ranging from 40 μM down until 2.0 nM. Also in a 96-well plate, recombinant HSP90α protein was diluted to 28 μg/ml. Then, in a 384-well plate, 10 μl of master mix and 5 μl of compound dilution were added per well to duplicate wells and mixed by brief shaking. Then 5 μl of diluted HSP90α protein was added per well, mixed by brief shaking, incubated at 25° C. for 30, 60 and 120 min and fluorescence was measured on an EnVision Plate Reader. Background-subtracted mP values were calculated from EnVision raw data and a four-parameter “log[inhibitor] vs. response” curve was fitted using GraphPad Prism 7.0.

Drawing on patent publication US20220168427A1 (Ranok Therapeutics (Hangzhou) Co. Ltd., priority 2019, published 2022), this text covers IC50 for 13 molecules.

Where only a bound is given, the exact number is not on record here.

Take “(S)—N-(4′-((1-((S)-(2-(4-(4-chlorophenyl)-2,3,9-trimethyl-6H-thieno[3,2-f][1,2,4]triazolo[4,3-a][1,4]diazepin-6-yl)acetyl)glycyl)piperidin-4-yl)oxy)-2′-hydroxy-[1,1′-biphenyl]-4-yl)-3′,6-dimethoxy-[1,1′-biphenyl]-3-carboxamide [Compound 133]”: the IC50 in the data set on MV4-11 cells, at BRD4 (BD1+BD2) and at HSP90α was more than 1000 nM in each case.
With `COc1cccc(-c2cc(C(=O)Nc3ccc(-c4ccc(OC5CCN(CC[C@@H]6N=C(c7ccc(Cl)cc7)c7c(sc(C)c7C)-n7c(C)nnc76)CC5)cc4OCCN(C)C)cc3)ccc2OC)c1` [Compound 139, (S)—N-(4′-((1-(2-(4-(4-chlorophenyl)-2,3,9-trimethyl-6H-thieno[3,2-f][1,2,4]triazolo[4,3-a][1,4]diazepin-6-yl)ethyl)piperidin-4-yl)oxy)-2′-(2-(dimethylamino)ethoxy)-[1,1′-biphenyl]-4-yl)-3′,6-dimethoxy-[1,1′-biphenyl]-3-carboxamide], the IC50 in the data set with MV4-11 cells is 100 to 1000 nM; on BRD4 (BD1+BD2) it was 100 to 1000 nM; at HSP90α it was more than 1000 nM.
`CCn1c(=O)/c(=C2\Sc3ccccc3N2C)s/c1=C\c1cccc[n+]1CCNC(=O)C[C@@H]1N=C(c2ccc(Cl)cc2)c2c(sc(C)c2C)-n2c(C)nnc21` [Compound 8, 1-(2-(2-((6S)-4-(4-chlorophenyl)-2,3,9-trimethyl-6H-thieno[3,2-f][1,2,4]triazolo[4,3-a][1,4]diazepin-6-yl)acetamido)ethyl)-2-((Z)-((E)-3-ethyl-5-(3-methylbenzo[d]thiazol-2(3H)-ylidene)-4-oxothiazolidin-2-ylidene)methyl)pyridin-1-ium] had an IC50 at 72 h in the data set on MV4-11 cells of more than 1000 nM. Further, the IC50 at BRD4 (BD1+BD2) is 100 to 1000 nM; on HSP90α, more than 1000 nM.
In the case of `Cc1cc(-c2nnc(O)n2-c2ccc(CN3CCN(CC4CCN(C(=O)C[C@@H]5N=C(c6ccc(Cl)cc6)c6c(sc(C)c6C)-n6c(C)nnc65)CC4)CC3)cc2)c(O)cc1O` [Compound 9, 2-((6S)-4-(4-chlorophenyl)-2,3,9-trimethyl-6H-thieno[3,2-f][1,2,4]triazolo[4,3-a][1,4]diazepin-6-yl)-1-(4-((4-(4-(3-(2,4-dihydroxy-5-methylphenyl)-5-hydroxy-4H-1,2,4-triazol-4-yl)benzyl)piperazin-1-yl)methyl)piperidin-1-yl)ethanone, trifluoroacetic acid], in the data set with MV4-11 cells, the IC50 at 72 h was less than 100 nM. In addition, the values for the IC50 on BRD4 (BD1+BD2) and at HSP90α were less than 100 nM and 100 to 1000 nM, respectively.
With `Cc1sc2c(c1C)C(c1ccc(Cl)cc1)=N[C@@H](CCNCC1CCN(C(=O)C3CCN(Cc4ccc(-n5c(O)nnc5-c5cc(C(C)C)c(O)cc5O)cc4)CC3)CC1)c1nnc(C)n1-2` [Compound 64, (4-(((2-((6S)-4-(4-chlorophenyl)-2,3,9-trimethyl-6H-thieno[3,2-f][1,2,4]triazolo[4,3-a][1,4]diazepin-6-yl)ethyl)amino)methyl)piperidin-1-yl)(1-(4-(3-(2,4-dihydroxy-5-isopropylphenyl)-5-hydroxy-4H-1,2,4-triazol-4-yl)benzyl)piperidin-4-yl)methanone, trifluoroacetic acid], the IC50 at 72 h in the data set on MV4-11 cells was 100 to 1000 nM. Moreover, the IC50 at BRD4 (BD1+BD2) and on HSP90α was 100 to 1000 nM each time.
`Cc1sc2c(c1C)C(c1ccc(Cl)cc1)=N[C@@H](CC(=O)NCc1ccc(CN3CCC(Cc4ccc(-n5c(O)nnc5-c5cc(C(C)C)c(O)cc5O)cc4)CC3)cc1)c1nnc(C)n1-2` [Compound 89, (S)-2-(4-(4-chlorophenyl)-2,3,9-trimethyl-6H-thieno[3,2-f][1,2,4]triazolo[4,3-a][1,4]diazepin-6-yl)-N-(4-((4-(4-(3-(2,4-dihydroxy-5-isopropylphenyl)-5-hydroxy-4H-1,2,4-triazol-4-yl)benzyl)piperidin-1-yl)methyl)benzyl)acetamide, trifluoroacetic acid]: the IC50 at 72 h in the data set on MV4-11 cells is less than 100 nM. The IC50 at BRD4 (BD1+BD2) and at HSP90α was 100 to 1000 nM throughout.
`Cc1sc2c(c1C)C(c1ccc(Cl)cc1)=N[C@@H](CCN(C)CCOc1ccc(-n3c(O)nnc3-c3cc(C(C)C)c(O)cc3O)cc1)c1nnc(C)n1-2` [Compound 65, (S)-4-(4-(4-(2-((2-(4-(4-chlorophenyl)-2,3,9-trimethyl-6H-thieno[3,2-f][1,2,4]triazolo[4,3-a][1,4]diazepin-6-yl)ethyl)(methyl)amino)ethoxy)phenyl)-5-hydroxy-4H-1,2,4-triazol-3-yl)-6-isopropylbenzene-1,3-diol] yielded an IC50 at 72 h in the data set with MV4-11 cells of 100 to 1000 nM. Further, the IC50 at BRD4 (BD1+BD2) is more than 1000 nM; at HSP90α, 100 to 1000 nM.
On to `Cc1sc2c(c1C)C(c1ccc(Cl)cc1)=N[C@@H](CC(=O)N1CCN(C(=O)C3CCN(c4ccc(-n5c(O)nnc5-c5cc(C(C)C)c(O)cc5O)cc4)CC3)CC1)c1nnc(C)n1-2` [Compound 29, (S)-2-(4-(4-chlorophenyl)-2,3,9-trimethyl-6H-thieno[3,2-f][1,2,4]triazolo[4,3-a][1,4]diazepin-6-yl)-1-(4-(1-(4-(3-(2,4-dihydroxy-5-isopropylphenyl)-5-hydroxy-4H-1,2,4-triazol-4-yl)phenyl)piperidine-4-carbonyl)piperazin-1-yl)ethan-1-one], for which the IC50 at 72 h with MV4-11 cells lay within 100 to 1000 nM. For the same molecule, the IC50 on BRD4 (BD1+BD2) and on HSP90α was more than 1000 nM in each case.
`Cc1sc2c(c1C)C(c1ccc(Cl)cc1)=N[C@@H](CC(=O)N1CCC(CN3CCN(c4ccc(-n5c(O)nnc5-c5cc(C(C)C)c(O)cc5O)cc4)CC3)CC1)c1nnc(C)n1-2` [Compound 41, (S)-2-(4-(4-chlorophenyl)-2,3,9-trimethyl-6H-thieno[3,2-f][1,2,4]triazolo[4,3-a][1,4]diazepin-6-yl)-1-(4-((4-(4-(3-(2,4-dihydroxy-5-isopropylphenyl)-5-hydroxy-4H-1,2,4-triazol-4-yl)phenyl)piperazin-1-yl)methyl)piperidin-1-yl)ethanone] registered an IC50 at 72 h in the data set with MV4-11 cells of less than 100 nM. In addition, the IC50 at BRD4 (BD1+BD2) and at HSP90α was 100 to 1000 nM each time.
As for `Cc1sc2c(c1C)C(c1ccc(Cl)cc1)=N[C@@H](CCNCCOc1ccc(-n3c(O)nnc3-c3cc(C(C)C)c(O)cc3O)cc1)c1nnc(C)n1-2` [Compound 62, (S)-4-(4-(4-(2-((2-(4-(4-chlorophenyl)-2,3,9-trimethyl-6H-thieno[3,2-f][1,2,4]triazolo[4,3-a][1,4]diazepin-6-yl)ethyl)amino)ethoxy)phenyl)-5-hydroxy-4H-1,2,4-triazol-3-yl)-6-isopropylbenzene-1,3-diol, trifluoroacetic acid], the IC50 at 72 h in the data set on MV4-11 cells fell in the range of 100 to 1000 nM. Besides, the IC50 at BRD4 (BD1+BD2) was more than 1000 nM; at HSP90α, 100 to 1000 nM.
Take `Cc1sc2c(c1C)C(c1ccc(Cl)cc1)=N[C@@H](CC(=O)N1CCC(CN3CCC(Cc4ccc(-n5c(C(=O)NCC(F)(F)F)nnc5-c5cc(C(C)C)c(O)cc5O)cc4)CC3)CC1)c1nnc(C)n1-2` [Compound 85, (S)-4-(4-((1-((1-(2-(4-(4-chlorophenyl)-2,3,9-trimethyl-6H-thieno[3,2-f][1,2,4]triazolo[4,3-a][1,4]diazepin-6-yl)acetyl)piperidin-4-yl)methyl)piperidin-4-yl)methyl)phenyl)-5-(2,4-dihydroxy-5-isopropylphenyl)-N-(2,2,2-trifluoroethyl)-4H-1,2,4-triazole-3-carboxamide, formic acid]: the IC50 at 72 h with MV4-11 cells was less than 100 nM. Further, the IC50 at BRD4 (BD1+BD2) and at HSP90α was 100 to 1000 nM in each case.
In the data set with MV4-11 cells, `Cc1sc2c(c1C)C(c1ccc(Cl)cc1)=N[C@@H](CC(=O)NCC(=O)NCc1ccc(-n3c(O)nnc3-c3cc(C(C)C)c(O)cc3O)cc1)c1nnc(C)n1-2` [Compound 57, 2-((6S)-4-(4-chlorophenyl)-2,3,9-trimethyl-6H-thieno[3,2-f][1,2,4]triazolo[4,3-a][1,4]diazepin-6-yl)-N-(2-((4-(3-(2,4-dihydroxy-5-isopropylphenyl)-5-hydroxy-4H-1,2,4-triazol-4-yl)benzyl)amino)-2-oxoethyl)acetamide] had an IC50 at 72 h of 100 to 1000 nM. Moreover, the IC50 on BRD4 (BD1+BD2) and at HSP90α was 100 to 1000 nM in each case.
In the case of `Cc1sc2c(c1C)C(c1ccc(Cl)cc1)=N[C@@H](CC(=O)NCC(=O)NCCOc1ccc(-n3c(O)nnc3-c3cc(C(C)C)c(O)cc3O)cc1)c1nnc(C)n1-2` [Compound 54, (S)-2-(4-(4-chlorophenyl)-2,3,9-trimethyl-6H-thieno[3,2-f][1,2,4]triazolo[4,3-a][1,4]diazepin-6-yl)-N-(2-((2-(4-(3-(2,4-dihydroxy-5-isopropylphenyl)-5-hydroxy-4H-1,2,4-triazol-4-yl)phenoxy)ethyl)amino)-2-oxoethyl)acetamide], the IC50 at 72 h with MV4-11 cells lay in the range of 100 to 1000 nM. Besides, the IC50 on BRD4 (BD1+BD2) is 100 to 1000 nM; on HSP90α it was less than 100 nM.
